Measurements taken from patent US20080214618A1, “Gastric Therapies Amd Compositions Therefor” (Auckland Uniservices Limited, priority 2004, published 2008).

What was measured:
[1] = system: H. pylori; assay: Survival / MBC of H. pylori in standard incubations (40 min, 37° C., pH 7.4); assay type: cell-based, Helicobacter pylori; settings: for effect on H. pylori viability of each ingredient by itself at low concentration: 0.3 mM FA C12:0, 0.05% Tween 20, 200 μg/ml lansoprazole, each alone
Description: FIG. 1 The survival of H. pylori in the presence of: FA C12:0 only (▴); FA C12:0 plus 100 μg/mL lansoprazole ([…]); FA C12:0 plus 200 μg/mL lansoprazole (▪); FA C12:0 plus 300 μg/mL lansoprazole (▾); FA C12:0 plus 400 μg/mL lansoprazole (♦); FA C12:0 plus 0.05% (w/w) Tween 20 (Δ); FA C12:0 plus 100 μg/mL lansoprazole plus 0.05% (w/w) Tween 20 (◯); FA C12:0 plus 200 μg/mL lansoprazole plus 0.05% (w/w) Tween 20 (□). Cells were incubated at pH 7.4 for 40 min at 37° C.
FIG. 2 The effect of lansoprazole on the survival of H. pylori in the presence of 0.05% Tween 20 (▴), and in its absence (Δ). Cells were incubated at pH 7.4 for 40 min at 37° C.
FIG. 4 The effect of monolaurin (MG C12) on survival of H. pylori in the absence (squares) and presence (diamonds) of Tween 80 (0.4%, w/v), after 40 min exposure at 37° C. and initial pH 7.4.
These can be selected from any one or more of capric acid, lauric acid, myristic acid, myristoleic acid, palmitoleic acid, linolenic acid, monolaurin or monomyristin for example. This list is not intended to be limiting. Reference can also be made to Table 1 of Sun et al FEMS Immun. Med. Microbiol. 36, 9-17, 2003 (the disclosure of which is included herein by way of reference). The MBC is the minimum concentration of agent(s) that result(s) in a 5 log units decrease in viable cell numbers.
The effects of combinations of lansoprazole (0-400 μg/mL), 0.05% Tween 20, and FA C12:0 (0.1-1.0 mM) on the viability of H. pylori were examined in standard incubations. The results are shown in FIG. 1, and the MBCs for FA C12:0, with different combinations of lansoprazole and Tween 20, are summarised in Table 1.
Experiments to Examine Possible Interactions Between Monolaurin (MG C12) and Tween 80. The concentration profile of monolaurin on the survival of H. pylori was tested in the presence and absence of 0.4% (w/v) Tween 80, and the results are shown in FIG. 4. MG C12 on its own, has little effect in the range 0-0.3 mM. However in the range 0.3-0.5 mM MG C12 there is a sharp increase in bactericidal potency, and the killing increased by >5 log units (FIG. 4, squares).

[2] = system: Helicobacter pylori in mucus; assay: In vitro mucus/H. pylori test chamber model: survival of H. pylori in pig gastric mucus; assay type: cell-based, Helicobacter pylori (NCTC 11637)
From the text: FIG. 3 Diagram of apparatus used to model the mucus layer in digestive tract. This test chamber was designed as an in vitro model to investigate the barrier effect of mucus in protecting H. pylori from agents present in the lumen of the stomach. […] The mucus layer (C2), contains H. pylori, with numbers of colony forming units as specified. It is held as a 1 mm thick disc between the test chamber base (B and C4) and a stainless steel mesh (A and C1). This was then inserted into a Falcon tube containing broth (D). • A. Screw top lid with a recessed top containing a stainless steel grid. • B. Base with recessed well 1 mm deep×10 mm diameter that contains mucus (shaded area—see C2) • C. Cross sectional view of chamber (A & B). 1—stainless steel mesh, 2=mucus, 3=screw top lid, 4=base • D. Chamber in a Falcon tube covered with Iso-sensitest broth (with or without additives). An H. pylori (NCTC 11637) culture was mixed with pig gastric mucus for 40 min, and then H. pylori colonies were re-isolated by dilution and plating. The re-isolated strain was used in the experiments below. PCR of the 16S rDNA piece and sequencing was used to confirm that the re-isolated bacterial strain was H. pylori. H. pylori was grown by plating on Columbia agar (Oxoid) with 5% horse serum (Fort Richard) at 37° C. for 48 h under microaerophilic conditions (80% nitrogen, 15% carbon dioxide, 5% oxygen). Two loops of 48 h agar plate culture were inoculated into pre-warmed (37° C.) Iso-sensitest broth (Oxoid) containing 5% horse serum and incubated for 24 h under microaerophilic conditions. This 24 h H. pylori broth culture (500 μL) was added to 3.5 g of thawed pre-warmed pig gastric mucus (previously frozen at −20° C.) and mixed. […] Final concentrations of surviving H. pylori colony forming units (cfu) were calculated per gram of mucus. […] Abbreviations used are: FA=0.1 or 0.2 mM lauric acid; TW=0.05% Tween 20; OM=0.58 mM omeprazole; NAC=0.245 M N-acetylcysteine. • (a) Calculated H. pylori cfu's initially added per gram of mucus. […]

Row | Structure (SMILES) | effect on H. pylori viability of each ingredient by itself at low concentration [1] | MBC ([1]; Helicobacter pylori, 40 min, MBC of FA C12:0 in medium with the stated additions, 40 min incubation with H. pylori at 37° C. and pH 7.4, MBC = concentration giving 5 log units decrease in viable cells, read-out: MBC (minimal bactericidal concentration of FA C12:0)) [µM] | effect of FA on its own on H. pylori survival in mucus ([2]; 0.1 mM FA experiment) | H. pylori numbers (cfu per g mucus) using 0.1 mM FA ([2]; 0.1 mM lauric acid, TW=0.05% Tween 20, OM=0.58 mM omeprazole, NAC=0.245 M N-acetylcysteine, 40 min, 37° C., pH 7.0, broth-alone control 1.29 × 10^6) | H. pylori numbers (cfu per g mucus) using 0.2 mM FA ([2]; 0.2 mM lauric acid, TW=0.05% Tween 20, OM=0.58 mM omeprazole, NAC=0.245 M N-acetylcysteine, 40 min, 37° C., pH 7.0, broth-alone control 2.64 × 10^4) | killing of H. pylori ([1]; 0.5 mM monolaurin in the absence of Tween 80, 40 min, 37° C., initial pH 7.4) [logs] | killing of H. pylori ([1]; 0.5 mM monolaurin with 0.4% Tween 80 present, 40 min, 37° C., initial pH 7.4) [logs] | effect of MG C12 on its own on survival of H. pylori ([1]; range 0-0.3 mM MG C12, no Tween 80, 40 min, 37° C., initial pH 7.4) | increase in killing of H. pylori ([1]; range 0.3-0.5 mM MG C12 on its own, 40 min, 37° C., initial pH 7.4) [log units] | effect of lansoprazole by itself on H. pylori in vitro ([1]; concentrations below 400 μg/mL, Midolo et al observation, confirmed by FIG. 2 (pH 7.4, 40 min, 37° C.))
1 | CCCCCCCCCCCC(=O)O [FA C12:0, lauric acid] | no effect | 1000 | minimal effect | 1.85 × 10^5 cfu per g mucus | 2.59 × 10^4 cfu per g mucus | – | – | – | – | –
2 | CCCCCCCCCCCC(=O)OCC(O)CO (centres unmarked) [MG C12, monolaurin] | – | – | – | – | – | > 5 | 3 | little effect | > 5 | –
3 | Cc1c(OCC(F)(F)F)ccnc1C[S+]([O-])c1nc2ccccc2[nH]1 (centres unmarked) [lansoprazole, reference compound] | no effect | – | – | – | – | – | – | – | – | little effect
